Target: T1, human P2X4 (Homo sapiens, UniProt Q99571)
T1 sequence (Q99571 1-388): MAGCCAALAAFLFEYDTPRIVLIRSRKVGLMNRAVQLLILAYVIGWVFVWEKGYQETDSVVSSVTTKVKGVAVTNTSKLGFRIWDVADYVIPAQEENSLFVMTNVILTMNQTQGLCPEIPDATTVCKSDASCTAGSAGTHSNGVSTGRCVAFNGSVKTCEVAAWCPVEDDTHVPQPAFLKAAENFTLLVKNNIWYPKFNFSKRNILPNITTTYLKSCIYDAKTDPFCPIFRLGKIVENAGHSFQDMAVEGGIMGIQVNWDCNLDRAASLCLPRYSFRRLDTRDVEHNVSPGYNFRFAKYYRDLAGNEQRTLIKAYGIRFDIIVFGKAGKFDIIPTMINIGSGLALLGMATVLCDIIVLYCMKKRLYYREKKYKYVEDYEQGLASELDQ
Test: Human P2X4 HEK Cell FLIPR Assay
Type: cell-based
Conditions: agonist Bz-ATP at EC80; for Emax: HEK293, HEK293 cells, percentage of maximal inhibition, read-out: Human P2X4 HEK Cells (FLIPR Assay) avg Efficacy [%]; for IC50: HEK293 cells, individual values listed where some fall outside detection range
Method in brief: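 Calcium flux read by FLIPR for 120 sec after Bz-ATP challenge at EC80 (established each assay day), following 30 min room-temperature compound preincubation in dye-loaded stable human P2X4 HEK293 cells. Peak RFU over basal normalized to agonist control; IC50, maximal inhibition and Hill coefficient from triplicate means.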

SMILES	Emax [%]	IC50 [µM]
CC(C(=O)Nc1ccc(-n2cc(Cl)cn2)c(S(N)(=O)=O)c1)c1c(F)cccc1F (stereo not drawn) [Example 106, N-[4-(4-Chloro-1H-pyrazol-1-yl)-3-sulfamoylphenyl]-2-(2,6-difluorophenyl)-propanamide]	92	4.63
NS(=O)(=O)c1cc(NC(=O)Cc2ccc(C(F)F)cc2)ccc1-n1cc(Cl)cn1 [Example 107, N-[4-(4-Chloro-1H-pyrazol-1-yl)-3-sulfamoylphenyl]-2-[4-(difluoromethyl)-phenyl]acetamide]	44	> 25
NS(=O)(=O)c1cc(NC(=O)Cc2ccc(Cl)cc2)ccc1-n1cc(C(F)(F)F)cn1 [Example 108, 2-(4-Chlorophenyl)-N-{3-sulfamoyl-4-[4-(trifluoromethyl)-1H-pyrazol-1-yl]phenyl}-acetamide]	35	> 25
NS(=O)(=O)c1cc(NC(=O)C(F)(F)c2ccccc2Cl)ccc1-n1cc(Cl)cn1 [Example 109, 2-(2-Chlorophenyl)-N-[4-(4-chloro-1H-pyrazol-1-yl)-3-sulfamoylphenyl]-2,2-difluoroacetamide]	86	0.655
NS(=O)(=O)c1cc(NC(=O)Cc2ccc(Cl)cc2Cl)ccc1-n1cc(C(F)(F)F)cn1 [Example 111, 2-(2,4-Dichlorophenyl)-N-{3-sulfamoyl-4-[4-(trifluoromethyl)-1H-pyrazol-1-yl]phenyl}-acetamide]	58	0.373
NS(=O)(=O)c1cc(NC(=O)Cc2cccc(F)c2)ccc1-n1cc(C(F)(F)F)cn1 [Example 114, 2-(3-Fluorophenyl)-N-{3-sulfamoyl-4-[4-(trifluoromethyl)-1H-pyrazol-1-yl]phenyl}-acetamide]	69	0.367
NS(=O)(=O)c1cc(NC(=O)Cc2cc(F)cc(F)c2)ccc1-n1cc(C(F)(F)F)cn1 [Example 115, 2-(3,5-Difluorophenyl)-N-{3-sulfamoyl-4-[4-(trifluoromethyl)-1H-pyrazol-1-yl]phenyl}-acetamide]	57	0.802
NS(=O)(=O)c1cc(NC(=O)Cc2ccc(F)c(F)c2)ccc1-n1cc(C(F)(F)F)cn1 [Example 118, 2-(3,4-Difluorophenyl)-N-{3-sulfamoyl-4-[4-(trifluoromethyl)-1H-pyrazol-1-yl]phenyl}-acetamide]	53	0.347
NS(=O)(=O)c1cc(NC(=O)Cc2ccc(F)cc2)ccc1-n1cc(C(F)(F)F)cn1 [Example 119, 2-(4-Fluorophenyl)-N-{3-sulfamoyl-4-[4-(trifluoromethyl)-1H-pyrazol-1-yl]phenyl}-acetamide]	55	0.27
NS(=O)(=O)c1cc(NC(=O)Cc2cccc(Cl)c2)ccc1-n1cc(C(F)(F)F)cn1 [Example 120, 2-(3-Chlorophenyl)-N-{3-sulfamoyl-4-[4-(trifluoromethyl)-1H-pyrazol-1-yl]phenyl}-acetamide]	31	> 25
COc1ccc(CC(=O)Nc2ccc(-n3cc(C(F)(F)F)cn3)c(S(N)(=O)=O)c2)cc1 [Example 121, 2-(4-Methoxyphenyl)-N-{3-sulfamoyl-4-[4-(trifluoromethyl)-1H-pyrazol-1-yl]phenyl}-acetamide]	70	0.292
NS(=O)(=O)c1cc(NC(=O)Cc2ccccc2OC(F)F)ccc1-n1cc(C(F)(F)F)cn1 [Example 125, 2-[2-(Difluoromethoxy)phenyl]-N-{3-sulfamoyl-4-[4-(trifluoromethyl)-1H-pyrazol-1-yl]phenyl}acetamide]	86	0.292
NS(=O)(=O)c1cc(NC(=O)Cc2cccnc2Cl)ccc1-n1cc(C(F)(F)F)cn1 [Example 126, 2-(2-Chloropyridin-3-yl)-N-{3-sulfamoyl-4-[4-(trifluoromethyl)-1H-pyrazol-1-yl]phenyl}acetamide]	92	1.91
NS(=O)(=O)c1cc(NC(=O)Cc2cc(F)c(F)cc2Cl)ccc1-n1cc(C(F)(F)F)cn1 [Example 130, 2-(2-Chloro-4,5-difluorophenyl)-N-{3-sulfamoyl-4-[4-(trifluoromethyl)-1H-pyrazol-1-yl]phenyl}acetamide]	71	0.284

Continued, values first:

Emax [%]	IC50 [µM]	SMILES
101	0.108	COc1cccc(Cl)c1CC(=O)Nc1ccc(-n2cc(Cl)cn2)c(S(N)(=O)=O)c1 [Example 105, 2-(2-Chloro-6-methoxyphenyl)-N-[4-(4-chloro-1H-pyrazol-1-yl)-3-sulfamoyl-phenyl]acetamide]
51	0.267	NS(=O)(=O)c1cc(NC(=O)Cc2ccccc2[N+](=O)[O-])ccc1-n1cc(C(F)(F)F)cn1 [Example 110, 2-(2-Nitrophenyl)-N-{3-sulfamoyl-4-[4-(trifluoromethyl)-1H-pyrazol-1-yl]phenyl}-acetamide]
62	0.263	COc1ccccc1CC(=O)Nc1ccc(-n2cc(C(F)(F)F)cn2)c(S(N)(=O)=O)c1 [Example 112, 2-(2-Methoxyphenyl)-N-{3-sulfamoyl-4-[4-(trifluoromethyl)-1H-pyrazol-1-yl]phenyl}-acetamide]
86	0.133	NS(=O)(=O)c1cc(NC(=O)Cc2c(F)cccc2Cl)ccc1-n1cc(C(F)(F)F)cn1 [Example 113, 2-(2-Chloro-6-fluorophenyl)-N-{3-sulfamoyl-4-[4-(trifluoromethyl)-1H-pyrazol-1-yl]phenyl}acetamide]
75	0.155	NS(=O)(=O)c1cc(NC(=O)Cc2c(Cl)cccc2Cl)ccc1-n1cc(C(F)(F)F)cn1 [Example 116, 2-(2,6-Dichlorophenyl)-N-{3-sulfamoyl-4-[4-(trifluoromethyl)-1H-pyrazol-1-yl]phenyl}-acetamide]
66	0.102	NS(=O)(=O)c1cc(NC(=O)Cc2ccccc2Br)ccc1-n1cc(C(F)(F)F)cn1 [Example 117, 2-(2-Bromophenyl)-N-{3-sulfamoyl-4-[4-(trifluoromethyl)-1H-pyrazol-1-yl]phenyl}-acetamide]
88	0.266	NS(=O)(=O)c1cc(NC(=O)Cc2cccc(F)c2F)ccc1-n1cc(C(F)(F)F)cn1 [Example 122, 2-(2,3-Difluorophenyl)-N-{3-sulfamoyl-4-[4-(trifluoromethyl)-1H-pyrazol-1-yl]phenyl}-acetamide]
79	0.109	Cc1ccccc1CC(=O)Nc1ccc(-n2cc(C(F)(F)F)cn2)c(S(N)(=O)=O)c1 [Example 123, 2-(2-Methylphenyl)-N-{3-sulfamoyl-4-[4-(trifluoromethyl)-1H-pyrazol-1-yl]phenyl}-acetamide]
62	0.166	Cc1cccc(CC(=O)Nc2ccc(-n3cc(C(F)(F)F)cn3)c(S(N)(=O)=O)c2)c1 [Example 124, 2-(3-Methylphenyl)-N-{3-sulfamoyl-4-[4-(trifluoromethyl)-1H-pyrazol-1-yl]phenyl}-acetamide]
85	0.209	NS(=O)(=O)c1cc(NC(=O)Cc2ccc(F)cc2Cl)ccc1-n1cc(C(F)(F)F)cn1 [Example 127, 2-(2-Chloro-4-fluorophenyl)-N-{3-sulfamoyl-4-[4-(trifluoromethyl)-1H-pyrazol-1-yl]phenyl}acetamide]
91	0.107	Cc1ccc(Cl)c(CC(=O)Nc2ccc(-n3cc(C(F)(F)F)cn3)c(S(N)(=O)=O)c2)c1 [Example 128, 2-(2-Chloro-5-methylphenyl)-N-{3-sulfamoyl-4-[4-(trifluoromethyl)-1H-pyrazol-1-yl]-phenyl}acetamide]
89	0.157	NS(=O)(=O)c1cc(NC(=O)Cc2ccccc2OC(F)(F)F)ccc1-n1cc(C(F)(F)F)cn1 [Example 129, N-{3-Sulfamoyl-4-[4-(trifluoromethyl)-1H-pyrazol-1-yl]phenyl}-2-[2-(trifluoro-methoxy)phenyl]acetamide]
58	0.155	NS(=O)(=O)c1cc(NC(=O)Cc2cccc(C(F)(F)F)c2Cl)ccc1-n1cc(C(F)(F)F)cn1 [Example 131, 2-[2-Chloro-3-(trifluoromethyl)phenyl]-N-{3-sulfamoyl-4-[4-(trifluoromethyl)-1H-pyrazol-1-yl]phenyl}acetamide]
62	0.08	Cc1ccc(F)c(CC(=O)Nc2ccc(-n3cc(C(F)(F)F)cn3)c(S(N)(=O)=O)c2)c1Cl [Example 132, 2-(2-Chloro-6-fluoro-3-methylphenyl)-N-{3-sulfamoyl-4-[4-(trifluoromethyl)-1H-pyrazol-1-yl]phenyl}acetamide]
82	0.107	NS(=O)(=O)c1cc(NC(=O)Cc2c(F)ccc(F)c2Cl)ccc1-n1cc(C(F)(F)F)cn1 [Example 133, 2-(2-Chloro-3,6-difluorophenyl)-N-{3-sulfamoyl-4-[4-(trifluoromethyl)-1H-pyrazol-1-yl]phenyl}acetamide]
89	0.147	NS(=O)(=O)c1cc(NC(=O)Cc2c(Cl)cccc2C(F)(F)F)ccc1-n1cc(C(F)(F)F)cn1 [Example 134, 2-[2-Chloro-6-(trifluoromethyl)phenyl]-N-{3-sulfamoyl-4-[4-(trifluoromethyl)-1H-pyrazol-1-yl]phenyl}acetamide]
